# Measured values as given in US20260102390A1, “4-(2-(4-((2,4-DIOXOTHIAZOLIDIN-5-YL)METHYL)PHENOXY) DERIVATIVES AS PPARgamma AGONISTS AND AUTOTAXIN INHIBITORS FOR USE IN THE TREATMENT OF FIBROSIS” (Uni-Pharma Kleon Tsetis Pharmaceutical Laboratories S.A., priority 2022, published 2026).
# Entries after “also recorded” stand apart in the source; their conditions may differ.
# Tests used:
# Mouse ATX = molecular target: T1, Mouse ATX (Mus musculus, UniProt Q9R1E6); experiment: Mode of inhibition of ATX, modified Amplex assay (Lineweaver-Burk); assay type: biochemical; details: inhibitor 1-7.5 μM, LPC 25, 50, 100 μM
# T1 construct: purchased Sino Biological
# Description: To determine the mode of inhibition of ATX by each inhibitor, a modified Amplex assay was employed. In brief, various concentrations of inhibitors (1, 2.5, 5 and 7.5 μM) were tested against various substrate concentrations (LPC 25, 50, 100 μM). Mouse ATX from Sino Biological was used in all mode of inhibition assays. Thereafter, the velocity (V) of the reaction was calculated and the reciprocal of velocity (1/V) was plotted against the reciprocal of substrate concentration (1/S) in Lineweaver-Burk graphs using GraphPad Software (GraphPad Software, San Diego, CA, USA).
# [1] = In vitro metabolism assay in liver microsomes; assay type: in vitro ADME
# Description: The in vitro metabolism assay was performed in liver microsomes. […] This half-live is higher than the ones of known drugs such as imipramine and others, therefore, it seems that A-1 is not quickly cleared from the circulation and, thus, remain available in the circulation for a sufficient period of time.
# HRP peroxidase = molecular target: T2, HRP peroxidase (Armoracia rusticana, UniProt P00433); experiment: 3rd reaction of the Amplex Red assay (counter-test); assay type: biochemical; details: 3rd reaction of Amplex Red assay
# T2 sequence (P00433 31-338 limits assumed): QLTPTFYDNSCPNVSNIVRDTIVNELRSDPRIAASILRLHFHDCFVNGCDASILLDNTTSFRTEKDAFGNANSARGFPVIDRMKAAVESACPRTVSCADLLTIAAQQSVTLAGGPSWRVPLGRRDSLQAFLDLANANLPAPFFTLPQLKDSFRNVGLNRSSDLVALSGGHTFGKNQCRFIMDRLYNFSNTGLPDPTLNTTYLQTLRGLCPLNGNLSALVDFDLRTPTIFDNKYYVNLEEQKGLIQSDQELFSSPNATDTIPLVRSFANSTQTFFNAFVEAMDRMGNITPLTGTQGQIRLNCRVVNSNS
# [2] = test system: BLM-induced pulmonary fibrosis; experiment: Bleomycin (BLM)-induced pulmonary fibrosis in mice, dosing from one day before BLM; assay type: in vivo, C57Bl6/J mice
# Description: 10-week-old male wild-type C57Bl6/J animals were administered a saline solution of bleomycin (BLM) directly to the lungs via the orotracheal route. The dose of bleomycin was 0.8 U/kg. […] All animals were monitored daily until the 14th day after the BLM injection when they were killed. […] Serum, broncheoalveolar fluid and lung tissue samples were taken at the end point of the experiment and were used to assess the severity of fibrosis for each animal.
# Blood serum was collected for each animal and levels of ALT and AST transaminases, which are markers of liver damage, were assessed by using an automated biochemical analyzer.
# Next, in the collected broncheoalveolar fluid, the number of cells as well as the total protein concentration were assessed as indicators of inflammation and endothelial penetration, respectively.
# Additionally, in sections of lung tissue isolated from the animals, fibrosis was assessed after staining with hematoxylin and eosin.
# The mRNA levels of fibrosis-related genes col1α1 (collagen 1α1) in whole lung RNA samples were also estimated.
# choline oxidase = experiment: 2nd reaction of the Amplex Red assay (counter-test); assay type: biochemical; details: 2nd reaction of Amplex Red assay
# ATX = ATX (UniProt Q9R1E6); experiment: ATX inhibitory activity, Amplex Red method; assay type: biochemical; details: LPC 16:0 50 μM, two independent experiments, read-out: IC50 against ATX
# Description: The inhibition of ATX enzyme activity of the pharmaceutical compound A-1 was measured in vitro by applying the Amplex Red method. Briefly, 2 μL of concentration from 0.001 to 5 μmol/L of derivative […] in DMSO was incubated with 50 μL ATX 8 nM (up to a final concentration of 2 nM and 1 nM for human ATX) and 48 μL of a buffer solution (50 mM Tris-Cl of pH 8.0 and 5 mM CaCl2) for 15 minutes at 37° C. Subsequently, 50 μL of a buffer solution containing 200 μM LPC 16:0 (final concentration 50 μM) was added to the reaction mixture followed by incubation for another 30 minutes at 37° C. Finally, 50 μL of working solution containing 200 μM Amplex Red reagent and choline oxidase (0.2 U/mL) […] HRP (2 U/mL), in 50 mM Tris-HCl at pH 8.0 and 5 mM CaCl2, was added to begin the reaction. The reaction was monitored at 37° C., in a fluorescence plate reader (Tecan Infinite 200) using excitation at 530 nm and reading at 590 nm, every five minutes for 30 minutes at 37° C. The IC50 value was calculated from two independent experiments, using the sigmoid dose-response curve (PrismH software) from the equation f=y0+a/(1+exp(−(x−x0)/b) given from SigmaPlot 11.0.
# [3] = In vitro absorption assay, membrane permeability; assay type: in vitro ADME; details: dog, MDCK, MDCKII
# Description: The in vitro absorption assay was performed in the kidney MDCKII cell line and involves the permeability from A to B, when A and B are separated by an MDCKII cell membrane. Ideally, a compound should have a high A to B permeability, but a lower B to A permeability in order to be well-absorbed. […] The A-B permeability is much higher than the B-A permeability, thus both compounds are absorbed well in vitro.
# hERG = molecular target: T3, hERG (Homo sapiens, UniProt Q12809); experiment: Cardiac toxicity assay, hERG inhibition in CHO cells; assay type: cell-based; details: for cardiotoxicity (conclusion): from hERG assay
# T3 construct: expressed in transfected cells; host or cells: CHO cells
# Description: The assay of cardiac toxicity is performed on CHO cells that express the human ether-a-go-go related gene (hERG) that encodes the inward rectifying voltage gated potassium channel in the heart, which is involved in cardiac repolarisation. Inhibition of the hERG may cause potentially fatal ventricular tachyarrhythmia.
# [4] = test system: BLM-induced pulmonary fibrosis; experiment: BLM-induced pulmonary fibrosis in mice, inhalation in therapeutic mode; assay type: in vivo, C57B16/J mice; details: inhalation 15 mg/Kg twice daily for 7 days, from 7d post BLM
# Description: To explore the therapeutic potential of ATX inhibition in pulmonary fibrosis, BLM was administered to 8-10-week-old C57B16/J mice. Subsequently, the pharmaceutical compound A-1 was delivered for 7 days twice daily via inhalation (1 ml of 6.5 mg/ml for 10 mins/6 mice, corresponding to 15 mg/Kg per mouse) to conscious, gently re-strained mice, in a therapeutic mode (7d post BLM).
# [5] = 30 mg/kg, 2 doses daily, vs B+V group
# T3 sequence (Q12809 whole entry): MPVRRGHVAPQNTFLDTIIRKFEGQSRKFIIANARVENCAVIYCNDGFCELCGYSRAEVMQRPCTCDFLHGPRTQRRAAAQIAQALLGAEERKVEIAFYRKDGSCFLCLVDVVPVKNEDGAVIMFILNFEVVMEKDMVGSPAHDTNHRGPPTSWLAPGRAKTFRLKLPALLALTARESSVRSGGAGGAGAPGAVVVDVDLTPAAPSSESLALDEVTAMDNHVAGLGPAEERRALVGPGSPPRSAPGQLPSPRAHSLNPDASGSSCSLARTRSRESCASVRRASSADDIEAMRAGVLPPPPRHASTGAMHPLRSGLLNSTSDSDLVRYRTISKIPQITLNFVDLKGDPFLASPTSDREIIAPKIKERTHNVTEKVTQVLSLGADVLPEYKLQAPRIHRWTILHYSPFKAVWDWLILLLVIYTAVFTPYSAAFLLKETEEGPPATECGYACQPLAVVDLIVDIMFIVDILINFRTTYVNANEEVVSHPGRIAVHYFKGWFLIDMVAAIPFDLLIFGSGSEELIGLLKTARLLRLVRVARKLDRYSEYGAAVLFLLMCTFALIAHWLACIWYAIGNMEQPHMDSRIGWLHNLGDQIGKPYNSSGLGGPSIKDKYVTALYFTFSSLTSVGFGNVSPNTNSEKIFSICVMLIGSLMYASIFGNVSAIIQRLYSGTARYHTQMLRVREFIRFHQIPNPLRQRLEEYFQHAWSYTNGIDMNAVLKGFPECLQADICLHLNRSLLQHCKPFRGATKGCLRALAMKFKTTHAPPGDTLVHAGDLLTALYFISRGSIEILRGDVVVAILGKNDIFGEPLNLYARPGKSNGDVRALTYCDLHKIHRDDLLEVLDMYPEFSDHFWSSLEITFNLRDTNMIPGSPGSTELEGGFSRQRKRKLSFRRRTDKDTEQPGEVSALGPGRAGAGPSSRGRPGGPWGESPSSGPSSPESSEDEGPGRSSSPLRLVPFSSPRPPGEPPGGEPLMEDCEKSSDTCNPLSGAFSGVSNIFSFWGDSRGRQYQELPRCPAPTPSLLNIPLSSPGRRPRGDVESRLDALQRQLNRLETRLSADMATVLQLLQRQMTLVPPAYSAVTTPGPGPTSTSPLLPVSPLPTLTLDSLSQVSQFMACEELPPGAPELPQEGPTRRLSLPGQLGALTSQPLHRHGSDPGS
compound,measurement,setting,value
"O=C1NC(=O)C(Cc2ccc(OCCN3CCN(C(=O)OCc4cc(Cl)cc(Cl)c4)CC3)cc2)S1 (centres unmarked) [A-1, 3,5-dichlorobenzyl4-(2-(4-((2,4-dioxothiazolidin-5-yl)methyl)phenoxy)ethyl)piperazine-1-carboxylate]",mode of inhibition against ATX,Mouse ATX,non-competitive inhibition
same,microsomal CLint,"[1]; liver microsomes, read-out: Clint (intrinsic clearance)",329 µL/min/mg
same,half-life,[1]; microsomes,21 min
same,inhibition of HRP peroxidase,HRP peroxidase,no inhibition; also recorded: Neither compound showed any detectable inhibition
same,side effects during the model,"[2]; 30 mg/kg, 2 doses daily, 14 days post BLM, vs untreated group",did not suffer any unwanted side effects
same,"fibrotic areas in lung sections, hematoxylin and eosin",[2]; [5],less fibrotic areas
same,number of cells in bronchoalveolar fluid,[2]; [5],reduced number of cells
same,total protein concentration in bronchoalveolar fluid,[2]; [5],lower levels
same,col1α1 mRNA levels in whole lung,"[2]; 30 mg/kg, 2 doses daily, vs B+V, restored to S+V level",reduces the mRNA levels (expression) of col1α1 statistically significantly
same,serum ALT level,"[2]; 30 mg/kg, 2 doses daily, normal range 28-132 U/L",normal
same,serum AST level,"[2]; 30 mg/kg, 2 doses daily, normal range 59-247 U/L",normal
same,liver toxicity / hepatotoxicity (conclusion),[2]; from ALT and AST levels,does not cause any adverse toxicity to the liver; also recorded: does not exhibit hepatotoxicity
same,inhibition of choline oxidase,choline oxidase,no inhibition; also recorded: Neither compound showed any detectable inhibition
same,IC50,ATX,0.19 µM
same,Papp A→B,[3]; A to B,3.7 ×10⁻⁶ cm/s
same,Papp B→A,[3]; B to A,0.8 ×10⁻⁶ cm/s
same,IC50,hERG,12 µM
same,cardiotoxicity (conclusion),hERG,not cardiotoxic; also recorded: does not exhibit cardiotoxicity
same,inflammatory cells in BALF,[4],significantly reduced
same,"lung architecture, H&E staining",[4],prevented BLM-induced architectural distortion
same,lung respiratory functions (FlexiVent),[4],relative protection
same,vascular leak and pulmonary edema (total protein concentration in BALF),[4],noteworthy decrease
"O=C1NC(=O)C(Cc2ccc(OCCC3CCN(C(=O)OCc4cc(Cl)cc(Cl)c4)CC3)cc2)S1 (centres unmarked) [A-3, 3,5-dichlorobenzyl 4-(2-(4-((2,4-dioxothiazolidin-5-yl)methyl)phenoxy)ethyl)piperidine-1-carboxylate]",mode of inhibition against ATX,Mouse ATX,non-competitive inhibition
same,inhibition of HRP peroxidase,HRP peroxidase,no inhibition; also recorded: Neither compound showed any detectable inhibition
same,inhibition of choline oxidase,choline oxidase,no inhibition; also recorded: Neither compound showed any detectable inhibition
same,IC50,ATX,0.03 µM
same,cardiotoxicity (conclusion),hERG,not cardiotoxic; also recorded: does not exhibit cardiotoxicity
same,inhibition at 25 µM,"hERG; human, at 25 μM",11%
"Cc1c(C)c2c(c(C)c1O)CCC(C)(COc1ccc(CC3SC(=O)NC3=O)cc1)O2 (centres unmarked) [TGL, troglitazone, reference compound]",IC50,ATX,0.61 µM
